Experiments:
[1] = test system: VEGF mRNA; experiment: VEGF mRNA expression in wild type murine embryonic fibroblasts (quantitative PCR); type: cell-based; details: hypoxic conditions (1% O2); 1, 10 and 100 μM; vs. hypoxia control; FIG. 1A
Protocol: Total RNA was isolated from tissues and cells by using TRIzol™ Reagent (Invitrogen) and the RNeasy kit (Qiagen), respectively. 1 μg RNA was used for reverse transcription using SuperScript II First-Strand Synthersis System (Invitrogen). cDNA's were amplified in a SYR Green or TaqMan Universal Master Mix (Applied Biosystems). Quantitative PCR (qPCR) was performed on ABI Prism 7700 sequence detection system. PCR conditions are: 10 min at 95° C., 40 cycles of 15 seconds at 95° C. and 1 minute at 60° C. The relative amount of mRNA was calculated after normalization to β-actin.
Cells were cultured in DMEM (#11965-092, Invitrogen) supplemented with 10% fetal bovine serum (Invitrogen), 100 U/mL penicillin and […] streptomycin. For glucose deprivation, DMEM without glucose (#11966-025, Invitrogen) was used.
Mouse embryonic fibroblasts (MEFs) were isolated from E12.5 embryos and immortalized by stable transfection with SV40 large T antigen.

[2] = test system: sVEGFR-1; experiment: sVEGFR-1 production by human peripheral blood monocytes (ELISA, real-time PCR); type: cell-based; details: monocytes stimulated with 100 ng/mL GM-CSF, presence vs. absence of 10 μM stabilizer, FIG. 11B
Protocol: (§1) Human peripheral blood mononuclear cells (PBMCs) were isolated from fresh peripheral blood leukocyte source packs (American Red Cross, Columbus Ohio) by density gradient centrifugation over Lymphocyte Separation Medium (Cellgro). Monocytes were purified from total PBMCs by layering over FBS. Monocytes were cultured in endotoxin-free RPMI-1640 supplemented with 1% fetal bovine serum (FBS), 0.1% human serum albumin (HSA), and 10 μg/mL of the endotoxin inhibitor polymyxin B. In some experiments, freshly isolated monocytes were differentiated into macrophages by three-day culture in media containing 10% FBS, 1% PSA (penicillin G sodium, streptomycin sulfate, and amphotericin B), and 20 ng/mL M-CSF. Macrophages were serum-starved for 2 hours prior to stimulation. Monocytes or monocyte-derived macrophages were treated for 24 hours with 10 ng/mL GM-CSF, 10 μM disclosed HIF-2α stabilizer, or an equivalent volume of the vehicle controls (PBS or DMSO, respectively). Cell-free culture supernatants were harvested and analyzed for VEGF or sVEGFR-1 by ELISA (R&D Systems).
Human monocytes were left untreated or were stimulated with 100 ng/mL GM-CSF at normoxia or at 0.5% O2. At various time-points, cells were harvested in Trizol reagent (Invitrogen) and RNA was extracted in chloroform and then purified using the RNeasy Minikit (Qiagen). […] Data were analyzed according to the comparative threshold method and normalized against the β-actin internal control transcript. Results are semi-quantitative and represent the fold difference in transcript levels in a particular sample as compared with levels in untreated cells from the same donor.
Since monocyte production of VEGF was dependent on HIF-1α, the inventors herein determined whether selective stabilization of HIF-1α via inhibition of PHD2 would increase monocyte production of VEGF but not sVEGFR-1. […]

[3] = test system: VEGF; experiment: VEGF production by human peripheral blood monocytes (ELISA, real-time PCR); type: cell-based; details: FIG. 11C
Protocol: as §1
Human monocytes were left untreated or were stimulated with 100 ng/mL GM-CSF at normoxia or at 0.5% O2. At various time-points, cells were harvested in Trizol reagent (Invitrogen) and RNA was extracted in chloroform and then purified using the RNeasy Minikit (Qiagen). In murine studies, organs harvested at the time of euthanasia were flash-frozen in liquid nitrogen, pulverized in liquid nitrogen, and then dissolved in Trizol. cDNA was generated from 1 μg of RNA using the Superscript First Strand Synthesis System (Invitrogen) and used for real-time PCR using previously described primers and SYBR Green PCR Master Mix (Applied Biosciences), according to the manufacturer's instructions. Data were analyzed according to the comparative threshold method and normalized against the β-actin internal control transcript. Results are semi-quantitative and represent the fold difference in transcript levels in a particular sample as compared with levels in untreated cells from the same donor.
VEGF protein was undetectable in the supernatants of GM-CSF-stimulated monocytes, due to neutralization of VEGF by sVEGFR-1 (FIG. 11C).
Since monocyte production of VEGF was dependent on HIF-1α, the inventors herein determined whether selective stabilization of HIF-1α via inhibition of PHD2 would increase monocyte production of VEGF but not sVEGFR-1. In order to make such determination, human peripheral blood monocytes were stimulated with GM-CSF in the presence of a selective inhibitor of PHD2 which results in the stabilization of HIF-1α.

[4] = test system: HIF-2α; experiment: Immunoblot for HIF-2α in murine bone marrow-derived macrophages; type: cell-based; details: treated for 18 hours, FIG. 11A
Protocol: (§2) To generate bone marrow-derived macrophages (BDMs), femoral bone marrow was isolated and progenitor cells were plated in RPMI-1640 supplemented with 10% FBS, 1% PSA, 10 μg/mL of polymyxin B, and 20 ng/mL of recombinant murine M-CSF. Cells were cultured for 5 days with the addition of fresh M-CSF every other day. Differentiated BDM were serum-starved for 2 hours and then treated with 100 ng/mL of murine GM-CSF and/or 25 μM the disclosed HIF-2α stabilizer in RPMI-1640 containing 1% FBS and 10 μg/mL polymixin B. Culture supernatants were collected after 72 hours and assayed for VEGF and sVEGFR-1 content by ELISA (R&D Systems).
(§3) In order to confirm the selective upregulation of HIF-2α by the disclosed HIF-2α stabilizer, murine bone marrow-derived macrophages were treated with the disclosed HIF-2α stabilizer for 18 hours, and cells were then lysed and immunoblotted for HIF-1α and HIF-2α.

[5] = test system: HIF-1α; experiment: Immunoblot for HIF-1α in murine bone marrow-derived macrophages; type: cell-based; details: treated for 18 hours, FIG. 11A
Protocol: as §2, §3

[6] = test system: endothelial cell marker CD31; experiment: Tumor vascularity by CD31 immunohistochemistry in melanoma-bearing mice; type: in vivo; details: mice treated with the control antibody; FIG. 14B; p=0.022

O=C(O)CNC(=O)c1ncc(-c2cccc(F)c2)cc1O [disclosed HIF-2α stabilizer, {[5-(3-Fluorophenyl)-3-hydroxypyridine-2-carbonyl]amino}acetic acid]
VEGF mRNA (relative amount) [1]: dramatic reduction
sVEGFR-1 production, protein level ([2]; p=0.007): increased significantly
sVEGFR-1 production, transcript level ([2]; p=0.033): increased significantly
VEGF production, transcript levels by real-time PCR ([3]; GM-CSF alone vs. GM-CSF and stabilizer, p=0.556): no difference
production of VEGF protein (free VEGF ELISA) ([3]; same supernatants as sVEGFR-1, 10 μM stabilizer, p=0.133): did not significantly increase
HIF-2α protein [4]: increase
HIF-1α protein [5]: no corresponding increase
tumor vascularity (CD31) [6]: decreased tumor vascularity

From patent US8865748B2, “Compounds and compositions for stabilizing hypoxia inducible factor-2 alpha as a method for treating cancer” (Akebia Therapeutics Inc., priority 2011, dated 2014)
